According to US7700584B2 (Hangzhou Minsheng Pharmaceuticals Co., Ltd., priority 2004, dated 2010):
Where a name gives a salt, the structure may show the parent alone.

Columns and labels:
[1] = system: A-549 human lung adenocarcinoma; experiment: In vitro anti-tumor IC50 (MTT), A-549; format: cell-based; conditions: Table 4; hydrochloride
Method: (§1) (1) Single cell suspension was seeded into 96-well plates (the cells was diluted in the PRMI-1640 minimum medium to 3×10^4 cells/ml, […] diluted cells/well). […] The experiments were performed in quadruplicate.
(§2) (2) The medium was removed. Solutions of the anti-tumor agents (50 compounds) were prepared in a freshly prepared medium at serial concentrations. […] of the solution was added into each well. Incubation was continued for 48 hours.
(§3) (3) 20 ug of 2 mg/ml MTT was added into each well, and incubated for 4 hours.
(§4) (4) The medium was removed from the well. The microplates were swiftly turned down to throw-off the medium. […] of DMSO was added into each well, and vortexed at room temperature for 10 minutes.
(§5) (5) OD value (λ=570 nm) was measured with an Enzyme-Linked Detector.
(§6) (6) The graph of cell vitality was plotted, and IC50 was calculated.

[2] = system: Bel-7402 human hepatic carcinoma; experiment: In vitro anti-tumor IC50 (MTT), Bel-7402; format: cell-based; conditions: Table 4; hydrochloride
Method: as §1, §2, §3, §4, §5, §6

[3] = system: LLC mouse Lewis lung carcinoma; experiment: In vitro anti-tumor IC50 (MTT), LLC; format: cell-based; conditions: Table 4; hydrochloride
Method: as §1, §2, §3, §4, §5, §6

[4] = system: SMMC-7721 human hepatic carcinoma; experiment: In vitro anti-tumor IC50 (MTT), SMMC-7721; format: cell-based; conditions: Table 4; hydrochloride
Method: as §1, §2, §3, §4, §5, §6

[5] = system: mouse grafted sarcoma S-180; experiment: Activity against mouse grafted sarcoma S-180; format: in vivo, Kunming mice; conditions: for Inhibition rate (%) / Tumor weight: 6 doses; for Tumor weight: X ± SD, n = 10; for Average weight (g)-after administration / Average weight(g)-after administration: mouse, in vivo, iv
How it was run: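 Male Kunming mice inoculated axillarily with S-180, 10 per group, given 10% compound solutions IV at 0.4, 0.2 or 0.1 ml/mouse from the day after inoculation, alternate days, 6 doses. Tumours excised the day after last dose; inhibition rate from mean tumour weight versus saline control; repeated three times.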

[6] = system: mouse grafted uterine cervix cancer U14; experiment: Activity against mouse grafted uterine cervix cancer U14; format: in vivo, Kunming mice; conditions: for Tumor weight: X ± SD, n = 10; for Average weight (g)-after administration: mouse, in vivo
[7] = system: mouse lung cancer Lewis; experiment: Activity against mouse grafted lung cancer Lewis; format: in vivo, Kunming mice; conditions: for Inhibition rate (%) / Tumor weight: Lewis; for Tumor weight: X ± SD, n = 10
Method: The experiments were performed according to “Guideline for New Drugs (Western medicines) in Pre-clinical Stages” issued by Bureau of Drug Policy & Administration of the People's Republic of China, and the relevant methods in “Methodology of Pharmaceutical Experiments”, Xu Shuyun et al. ed. 120 male Kunming mice weighting […] were allowed to grow 3 days. No abnormality was observed. The mice were routinely inoculated in oxter with mouse sarcoma S-180, and weighted 4 hrs. after inoculation. The mice were randomly divided into 12 groups, 10 mice/group. Group 1 was given 0.3 ml of physiological saline as negative control; Group 2 was given 5-FU as positive control, 0.6 mg/mouse; Group 3 was given hydroxycamptothecine as positive control, 0.02 mg/mouse. Groups 4, 5 and 6 were injected with 10% Compound 6, 0.4 ml/mouse, 0.2 ml/mouse, and 0.1 ml/mouse, respectively. Groups 7, 8 and 9 were injected with 10% Compound 8, 0.4 ml/mouse, 0.2 ml/mouse, and 0.1 ml/mouse, respectively. Groups 10, 11, and 12 were injected with 10% Compound 20, 0.4 ml/mouse, 0.2 ml/mouse, and 0.1 ml/mouse, respectively. The tested compounds were administered on the next day after inoculation, once a day on alternate days, 6 doses totally administered. On the next day after the end dose, the mice were weighed and sacrificed. After the tumor was excised, body weight and tumor weight were recorded. The tumor inhibition rate was calculated based on the following formula: [(average tumor weight of the control groups−average tumor weight of the experimental groups)/average tumor weight of the control groups]×100%. The data was processed statistically. The above experiments were repeated three times.
The experiments were identical with the experiments for activity against mouse grafted sarcoma S-180, except the following:
(1) the tumor cell line inoculated was mouse lung cancer Lewis;
(2) Compound 6, Compound 8 and Compound 21 were not tested for their activity;
(3) the mice were divided into six groups.

[8] = system: Hepatitis B virus (HBV); format: cell-based
[9] = system: eight selected tumor cell lines; experiment: In vitro anti-tumor IC50, summary over the selected tumor cell lines; format: cell-based; conditions: all eight cell lines
Method: as §1, §2, §3, §4, §5, §6

[10] = system: HepG2 cells; experiment: Cell status of HepG2 cells treated with sample (HBV screening); format: cell-based; conditions: 200 μg/ml, HepG2, four days after infection
[11] = S-180, first experiment, 10 mg/kg i.v.
[12] = S-180, first experiment, 20 mg/kg i.v.
[13] = S-180, first experiment, 40 mg/kg i.v.
[14] = S-180, second experiment, 10 mg/kg i.v.
[15] = S-180, second experiment, 20 mg/kg i.v.
[16] = S-180, second experiment, 40 mg/kg i.v.
[17] = U14, first experiment, 10 mg/kg
[18] = U14, first experiment, 20 mg/kg
[19] = U14, first experiment, 40 mg/kg
[20] = U14, second experiment, 10 mg/kg
[21] = U14, second experiment, 20 mg/kg
[22] = U14, second experiment, 40 mg/kg
[23] = U14, third experiment, 10 mg/kg
[24] = U14, third experiment, 20 mg/kg
[25] = U14, third experiment, 40 mg/kg

CC(C)C1CC23OC1(O)C/C(=C\Nc1ccc(O)cc1)C2CCC3C (centres unmarked) [Compound 6, Curcumol p-hydroxy aniline hydrochloride]
IC50 (ug/ml) against tumor cell lines, A-549 [1]: 2.1 µg/mL
IC50 (ug/ml) against tumor cell lines, Bel-7402 [2]: 1.0 µg/mL
IC50 (ug/ml) against tumor cell lines, LLC [3]: 3.8 µg/mL
IC50 (ug/ml) against tumor cell lines, SMMC-7721 [4]: 4.0 µg/mL
Inhibition rate (%) [5, 11]: 56%
Tumor weight [5, 11]: 1.1 ± 0.31 g
Inhibition rate (%) [5, 12]: 68.4%
Tumor weight [5, 12]: 0.79 ± 0.21 g
Inhibition rate (%) [5, 13]: 75.2%
Tumor weight [5, 13]: 0.62 ± 0.34 g
Inhibition rate (%) [5, 14]: 57.7%
Tumor weight [5, 14]: 1.1 ± 0.31 g
Inhibition rate (%) [5, 15]: 68.8%
Tumor weight [5, 15]: 0.82 ± 0.32 g
Inhibition rate (%) [5, 16]: 72.7%
Tumor weight [5, 16]: 0.71 ± 0.44 g
Average weight (g)-after administration ([5]; 10 mg/kg): 22.3 g
Average weight(g)-after administration ([5]; 10 mg/kg): 22.3 g
Average weight (g)-after administration ([5]; 20 mg/kg): 22.9 g
Average weight(g)-after administration ([5]; 20 mg/kg): 21.9 g
Average weight (g)-after administration ([5]; 40 mg/kg): 22.0 g
Average weight(g)-after administration ([5]; 40 mg/kg): 22.0 g
inhibitory effect against mouse sarcoma S-180 (in words) ([5]; three different concentrations (40, 20, 10 mg/kg), i.v.): good inhibitory effect
Inhibition rate (%) [6, 17]: 37.3%
Tumor weight [6, 17]: 2.2 ± 0.37 g
Inhibition rate (%) [6, 18]: 65.0%
Tumor weight [6, 18]: 1.23 ± 0.29 g
Inhibition rate (%) [6, 19]: 72.6%
Tumor weight [6, 19]: 0.96 ± 0.31 g
Inhibition rate (%) [6, 20]: 32.3%
Tumor weight [6, 20]: 2.3 ± 0.37 g
Inhibition rate (%) [6, 21]: 64.7%
Tumor weight [6, 21]: 1.20 ± 0.29 g
Inhibition rate (%) [6, 22]: 73.5%
Tumor weight [6, 22]: 0.90 ± 0.31 g
Inhibition rate (%) [6, 23]: 35.9%
Tumor weight [6, 23]: 2.32 ± 0.37 g
Inhibition rate (%) [6, 24]: 63.5%
Tumor weight [6, 24]: 1.32 ± 0.29 g
Inhibition rate (%) [6, 25]: 72.1%
Tumor weight [6, 25]: 1.01 ± 0.31 g
inhibitory effect against mouse grafted uterine cervix cancer U14 (in words) ([6]; all the three concentrations, i.v., female mice): good inhibitory effect
Average weight (g)-after administration ([6]; 10 mg/kg): 22.1 g
Average weight (g)-after administration ([6]; 20 mg/kg): 21.6 g
Average weight (g)-after administration ([6]; 40 mg/kg): 21.6 g
Inhibition rate (%) ([7]; first experiment, 10 mg/kg): 29.5%
Tumor weight ([7]; first experiment, 10 mg/kg): 2.10 ± 0.37 g
Inhibition rate (%) ([7]; first experiment, 20 mg/kg): 42.6%
Tumor weight ([7]; first experiment, 20 mg/kg): 1.71 ± 0.29 g
Inhibition rate (%) ([7]; first experiment, 40 mg/kg): 51.7%
Tumor weight ([7]; first experiment, 40 mg/kg): 1.44 ± 0.31 g
Inhibition rate (%) ([7]; second experiment, 10 mg/kg): 25.3%
Tumor weight ([7]; second experiment, 10 mg/kg): 1.80 ± 0.37 g
Inhibition rate (%) ([7]; second experiment, 20 mg/kg): 44.4%
Tumor weight ([7]; second experiment, 20 mg/kg): 1.34 ± 0.29 g
Inhibition rate (%) ([7]; second experiment, 40 mg/kg): 50.6%
Tumor weight ([7]; second experiment, 40 mg/kg): 1.19 ± 0.31 g
Inhibition rate (%) ([7]; third experiment, 10 mg/kg): 33.3%
Tumor weight ([7]; third experiment, 10 mg/kg): 1.80 ± 0.37 g
Inhibition rate (%) ([7]; third experiment, 20 mg/kg): 47.4%
Tumor weight ([7]; third experiment, 20 mg/kg): 1.42 ± 0.29 g
Inhibition rate (%) ([7]; third experiment, 40 mg/kg): 52.6%
Tumor weight ([7]; third experiment, 40 mg/kg): 1.28 ± 0.31 g
inhibitory effect against mouse lung cancer Lewis ([7]; first of three concentrations (40 mg/kg)): 51.6%
inhibitory effect against mouse lung cancer Lewis ([7]; second of three concentrations (20 mg/kg)): 44.8%
inhibitory effect against mouse lung cancer Lewis ([7]; third of three concentrations (10 mg/kg)): 29.4%
(Value of the positive control - Measured Value) Value of the positive control × 100% ([8]; 200 μg/ml, decrease of HBeAg relative to positive control): 93.43%
OD450 of HBeAg ([8]; 200 μg/ml, supernatant four days after infection, positive control 1.917, negative 0.057): 0.126
activity against HBV (in words) ([8]; primary screening, HBV e antigen, HepG2, 13 samples): had the activity against HBV
inhibitory effect to all the eight selected tumor cell lines (in words) [9]: strong inhibitory effect
Cell status [10]: Normal
